Measured values taken from US12667569B2, “Use of sepiapterin and metabolites thereof to treat radiation exposure” (PTC Therapeutics MP, Inc., priority 2019, dated 2026).
Entries after “also recorded” stand apart in the source; their conditions may differ.

Assays:
C57L/J mice [1] = assay: Survival over 180 days post IR (Kaplan Meyer); assay type: in vivo
Protocol: (§1) Equal numbers of male and female mice were distributed to each group. While under ketamine/xylazine anesthesia (100 mg/kg and 10 mg/kg, respectively) mice received 5 Gy total body irradiation (TBI), immediately followed by a top-up dose of 6.5 Gy to the thorax, for a total thoracic dose of 11.5 Gy, using a Varian 21 EX LINAC (Palo Alto, CA). Twenty-four hours post-irradiation, mice were treated once daily for 6 days by oral gavage with 1 mg/kg sepiapterin or 5 mg/kg BH4 dissolved in water (FIG. 1).
To determine whether the improved cardiopulmonary function impacted overall survival the mice were followed over 180 days post IR.

exosomal miRNAs = assay: Serum exosomal miRNA expression after irradiation; assay type: in vivo, mice
Protocol: Blood was collected by cardiac puncture using EDTA vials. Blood samples were centrifuged 3,000×g for 25 minutes, and plasma fraction was aliquoted and saved in a vapor phase of liquid nitrogen. Exosomes were isolated from the plasma of mice at the time points shown in FIGS. 6A-6C using an Exosome isolation kit from 101Bio. Exosome concentrations were quantified by EXOCET Exosome Quantitation Kit (System Biosciences). Equal exosome number from 5 animals were combined for each time point, and total exosomal RNA was extracted by using miRNeasy Micro Kit (QIAGEN). For the miRNAs expression profiling the miRCURY LNA™ Universal RT microRNA PCR assay (QIAGEN) and ExiLENT SYBR® Green Maser Mix (QIAGEN) were used. The initial estimation of exosomal miRNAs expression was performed by using Serum/Plasma LNA™ miRNA PCR Panel (Cat. #YAHS-106Y. QIAGEN) on the QuantStudio 5 RT-PCR machine (Applied Biosystems).
The first group included let-7a-5p, miR-1, miR-106b-3p, miR-106b-5p, miR-126-3p, miR-181a-5p, miR-335-3p, and miR-335-5p. […] The second group included let-7g-5p, let-7i-5p, and miR-16-5p. There were no significant differences between males and females both in terms of exosomal miRNA expression altered by IR or the effects of sepiapterin on miRNA expression.

C57L/J mice [2] = assay: Assessment of lung injury by breathing rate (MouseOx) after irradiation; assay type: in vivo; conditions: irradiated mice
Protocol: as §1
The breathing rate was measured every other week starting in week 6 using the Mouse Ox system (STARR Life Sciences Corp., Allison Park, PA). The animal was placed under ketamine/xylazine anesthesia and shaved in the area of analysis. 10 min post injection the animal was placed in a supine position with the sensor clipped to the upper thigh. The breathing rate was recorded for 3 min. The breathing rate was calculated using an algorithm in the Mouse Ox software.

C57L/J mice [3] = assay: Echocardiography: contractile reserve (isoproterenol response), myocardial performance index, IRT after irradiation; assay type: in vivo
Protocol: Both male and female C57L/J wild-type 6-8-week-old mice were purchased from Jackson Laboratory (Bar Harbor, ME). The mice were housed with a 12:12 h light-dark schedule and access to water and food ad libitum. The experiments were conducted under the guidelines of laboratory animals for biomedical research published by the National Institutes of Health (rev. 2011). The study protocol was approved by the Institutional Animal Care and Use Committee of Virginia Commonwealth University.
as §1
All mice underwent transthoracic echocardiography at baseline (before irradiation (IR)), at 8, 30, 60, 90 and 180 days, under light anesthesia (30 mg/kg pentobarbital sodium). Echocardiography was performed with the Vevo770 imaging system (VisualSonics, Toronto, Ontario, Canada) and a 30-MHz probe. The heart was visualized in B-mode from parasternal short-axis and apical views. The left ventricular (LV) end-diastolic diameter (EDD), LV end-systolic diameter (ESD), LV anterior wall diastolic thickness (AWDT), and LV posterior wall diastolic thickness (PWDT), LV anterior wall systolic thickness (AWST), and LV posterior wall systolic thickness (PWST) were measured at M-mode, according to the American Society of Echocardiography recommendations. LV ejection fraction (EF), and LV mass were calculated from the measurements of wall thickness and chamber diameters. The LVEF was derived using the Teicholz formula (LVEF=[LVEDD3−LVESD3]/LVEDD3), as previously described. The transmitral LV outflow tract Doppler spectra (E, A, ET) was recorded from an apical four-chamber view, and the myocardial performance index (MPI) was calculated as the […] isovolumetric contraction time (ICT) and isovolumetric relaxation time (IRT) divided by the ejection time (ED. The investigators performing and reading the echocardiograms were blinded to the treatment allocation. A beta-adrenergic agonist, isoproterenol (Sigma Aldrich, St. Louis, MO, USA) 20 ng/mouse, was used to assess cardiac contractility in irradiated mice without SP treatment. Cardiac contractility (contractile reserve) was expressed as percentage change in LVEF measured at rest (LVEFr) and 3 min after isoproterenol injection (LVEFi) and calculated as [(LVEFi−LVEFr)/LVEFr]*100. Measurements of the contractile reserve were taken at baseline, 8, 30, 60, 90 and 180 days after IR. Echocardiogram assessment was performed by an operator blinded to treatment allocation.

[4] = system: plasma IL-6, fibrinogen, neutrophil elastase, C-reactive protein; assay: Plasma ELISA of IL-6, fibrinogen, neutrophil elastase, C-reactive protein after irradiation; assay type: in vivo, mice
Protocol: At the time of sacrifice, blood was obtained by heart puncture into EDTA containing tubes and centrifuged at 3000 rpm for 25 mins to isolate the plasma. The following ELISA plates from Abcam were used for analysis: fibrinogen (ab213478), neutrophil elastase (ab252356), C-reactive protein (ab157712) and IL-6 (ab100713). Plasma samples were processed and ELISA kits were run according to manufacturer recommendations. All cytokines were reported with an absolute unit. Key molecular players of the coagulation cascade like tissue factor, thrombin, and fibrinogen are epidemiologically and mechanistically linked with an inflammatory component. Genetic and pharmacologic studies have unraveled pivotal roles for fibrinogen in determining the extent of local or systemic inflammation. Neutrophil elastase, a serine protease present in the azurophil granules of neutrophils, is released in an inflammatory state and disintegrates extracellular matrices due to its low substrate specificity, resulting in tissue injury. Neutrophil elastase is one of the most destructive enzymes in the body. Once unregulated, this enzyme disturbs the function of the lung permeability barrier and induces the release of pro-inflammatory cytokines with stimulation of acute lung injury. […] High levels of IL-6 in blood plasma may exacerbate the inflammatory response in the lung tissue, which ultimately causes IL-6 leakage to bronchoalveolae and further lung damage. High levels of IL-6 in the lung tissue may attract more inflammatory cells such as neutrophils, monocytes, macrophages to the injured local lung which ultimately causes serious damage to the lung and leads to chronic fibrosis. An acute raise of IL-6 in plasma can lead to increases in C Reactive Protein (CRP). C Reactive Protein (CRP) is produced by the liver and is a biomarker for general stress response to inflammation or infectious agents. It was shown that serum CRP level may be an effective indicator for predicting the occurrence of radiation pneumonitis and valuable factor for evaluating radiation-induced lung-injury extent.

[5] = system: cytokines' mRNAs in heart tissue; assay: Cytokine mRNA expression (qPCR) in heart tissue after irradiation; assay type: in vivo, mice; conditions: 8 days, 30 days, 16 weeks after IR, SP vs vehicle
Protocol: (§2) Total RNA was isolated from the lung and heart tissue samples following the manufacturers instructions with the RNeasy Mini kit (Qiagen). The RNA concentration was evaluated by using a NanoDrop ND-1000 spectrophotometer (Thermo Scientific). RNA purity was assessed by the ratios of A260/A280 and A260/A230. RNA integrity was evaluated by the ratio of 28S/18S ribosomal RNA (rRNA) and the RNA integrity number (RIN) using an Agilent 2100 BioAnalyzer (Agilent Technologies). cDNA synthesis and genomic DNA elimination were performed by using RT2 First Strand Kit (QIAGEN). Samples were amplified using RT2 SYBR® Green qPCR Mastermix probes from QIAGEN on the QuantStudio 5 RT-PCR machine (Applied Biosystems). The following RT2 qPCR Primer Assays (QIAGEN) were used: Mouse Actin-β (NM_007393), Mouse Bmp2 (NM_007553), Mouse Ccl2 (NM_011333), Mouse Ctgf (NM_010217), Mouse IL-1β (NM_008361), Mouse IL-6 (NM_031168), Mouse IL-10 (NM_010548), Mouse IL-17α (NM_010552), Mouse Runx2 (NM_001145920), Mouse Spp1 (NM_001204201), Mouse TGF-β1 (NM_011577), Mouse Trim72 (NM_001079932).

[6] = system: cytokines' mRNAs in lung tissue; assay: Cytokine mRNA expression (qPCR) in lung tissue after irradiation; assay type: in vivo, mice; conditions: 16 weeks after IR, mean±SD, vehicle 4.25±0.537
[7] = system: cytokines' mRNAs in lung tissue; assay: as above; assay type: in vivo, mice
Protocol: as §2

[8] = irradiated mice, BH4 5 mg/kg oral once daily 6 days from 24 h post-IR
[9] = 30 days after IR, SP-treated vs vehicle-treated

SMILES: C[C@H](O)[C@H](O)[C@H]1CNc2[nH]c(N)nc(=O)c2N1 [BH4, Tetrahydrobiopterin]
- survival (C57L/J mice [1]; irradiated mice, oral BH4 starting 24 hours after radiation): increased survival
- exosomal expression of miR-15b-3p, miR-106a-5p, miR-133b, miR-136-5p, miR-451a, miR-1, miR-335-3p, let-7d-3p, let-7c-5p (exosomal miRNAs; irradiated mice, BH4 treatment (FIG. 6A)): increases in expression
- development of lung injury (C57L/J mice [2]; 5 mg/kg BH4 for 6 days, vs vehicle): significant delay in the development of lung injury
- lung function (breathing rate) (C57L/J mice [2]; 5 mg/kg BH4 for 6 days, vs vehicle, 5 mg/kg): significantly reduced impairment of lung function at all points measured; also recorded: decreasing breathing frequency
- contractile reserve (C57L/J mice [3]; [8]): enhanced contractile reserve
- systolic and diastolic function (C57L/J mice [3]; [8]): improved systolic and diastolic function

SMILES: C[C@H](O)C(=O)C1=Nc2c([nH]c(N)nc2=O)NC1 [SP, Sepiapterin]
- plasma level of IL-6 ([4]; 4 days after IR, vehicle 304.05±153.23): 97.00 ± 45.71 pg/mL
- plasma level of IL-6 ([4]; 8 days after IR, vehicle 606.09±72.72): 49.85 ± 39.36 pg/mL
- plasma level of fibrinogen ([4]; 8 days after IR, vehicle 948.77±98.54): 332.38 ± 109.02 µg/mL
- plasma level of neutrophil elastase ([4]; 180 days after IR, vehicle 25.21±6.54): 12.15 ± 2.87 ng/mL
- plasma level of IL-6 ([4]; 180 days after IR, vehicle 197.22±55.55): 40.06 ± 43.26 pg/mL
- plasma C reactive protein ([4]; any time-point after IR, SP vs vehicle): did not demonstrate significant difference
- mice alive at 180 days (C57L/J mice [1]; 11.5 Gy total thoracic dose, 1 mg/kg/day SP for 6 days, untreated 40%): 71%
- overall survival (C57L/J mice [1]; 11.5 Gy total thoracic dose, 1 mg/kg/day SP for 6 days, vs irradiated without treatment, 1 mg/kg/day): significantly delayed and overall improved survival; also recorded: increased survival
- expression of all evaluated cytokines (Bmp2, Ccl2, Ctgf, IL-1β, IL-6, IL-10, IL-17A, IL-33, Runx2, Spp2, TGF-β1, Trim72) [5]: no significant difference in expression between Vehicle-treated and SP-treated groups
- relative expression of Spp2 mRNA [6]: 2.38±0.211
- exosomal expression of let-7a-5p, miR-1, miR-106b-3p, miR-106b-5p, miR-126-3p, miR-181a-5p, miR-335-3p, miR-335-5p (exosomal miRNAs; [9]): significantly lower in vehicle-treated animals comparing with SP-treated animals
- exosomal expression of let-7g-5p, let-7i-5p, miR-16-5p (exosomal miRNAs; [9]): significantly higher in vehicle-treated animals comparing with SP-treated animals
- time to development of lung injury (C57L/J mice [2]; 1 mg/kg/day SP for 6 days, vehicle 10 weeks): 14 weeks
- lung function (breathing rate) (C57L/J mice [2]; 1 mg/kg/day SP for 6 days, vs vehicle, 1 mg/kg/day): significantly reduced impairment of lung function at all points measured; also recorded: decreasing breathing frequency; also recorded: significantly improved pulmonary function at all points measured
- relative expression of TGF-β1 mRNA ([7]; 16 weeks after IR, mean±SD, vehicle 3.26±0.339): 1.53±0.367
- relative expression of IL-17A mRNA ([7]; 16 weeks after IR, mean±SD, vehicle 4.5±0.824): 2.12±1.173
- relative expression of IL-6 mRNA ([7]; 16 weeks after IR, mean±SD, vehicle 28.85±5.987): 17.05±4.12
- relative expression of IL-17A mRNA ([7]; 8 days after IR, mean±SD, vehicle 9.19±2.783): 2.71±1.874
- relative expression of IL-6 mRNA ([7]; 8 days after IR, mean±SD, vehicle 16.88±4.91): 1.36±0.509
- relative expression of IL-1β mRNA ([7]; 8 days after IR, relative to non-irradiated control, mean±SD, vehicle 2.9±0.649): 1.54±0.825
- relative expression of Ccl2 mRNA ([7]; 30 days after IR, SP vs vehicle): no significant difference between Vehicle-treated and SP-treated animal groups
- relative expression of IL-1β mRNA ([7]; 30 days after IR, mean±SD, vehicle 3.39±0.532): 1.66±0.51
- relative expression of IL-17A mRNA ([7]; 30 days after IR, mean±SD, vehicle 5.65±2.263): 1.49±0.379
- relative expression of IL-6 mRNA ([7]; 30 days after IR, mean±SD, vehicle 9.09±0.533): 4.96±0.905
- systolic and diastolic function response, evaluated by sex (C57L/J mice [3]; irradiated male vs female mice, 1 mg/kg SP): no significant differences in heart function response
- mitigation of loss in contractile reserve, evaluated by sex (C57L/J mice [3]; irradiated male vs female mice, SP 1 mg/kg): equally effective in mitigating this loss in contractile reserve
- contractile reserve (response to isoproterenol) (C57L/J mice [3]; irradiated mice (5 Gy TBI + 6.5 Gy thorax), SP 1 mg/kg oral once daily 6 days from 24 h post-IR, up to 180 days, vs vehicle): restore the response to beta-adrenergic stimulation by isoproterenol; also recorded: enhanced contractile reserve; also recorded: blunted the drop in the contractile reserve at all the time points
- myocardial performance index (Tei index) and isovolumetric relaxation time (IRT); systolic and diastolic function (C57L/J mice [3]; irradiated mice, SP 1 mg/kg oral once daily 6 days from 24 h post-IR, up to 180 days, vs vehicle): ameliorating the progressive increase in myocardial performance index and IRT; also recorded: improved systolic and diastolic function; also recorded: blunted the increase in the Tei index and IRT at all the time points
